The values that follow come from article PMC10467532, “Design, synthesis, and biological evaluation of thiazole/thiadiazole carboxamide scaffold-based derivatives as potential c-Met kinase inhibitors for cancer treatment” (Journal of Enzyme Inhibition and Medicinal Chemistry, 2023).

The test system of one series is FHC. The experiment in a line: MTT cytotoxicity assay, normal FHC cells. The following applies: Homo sapiens, 48 h, read-out: IC50 FHC.
For the next series, the system named is HUVEC. Briefly: MTT cytotoxicity assay, normal HUVEC cells. The following applies: Homo sapiens, 48 h, read-out: IC50 HUVEC.
The subject of another series is MDA-MB-231. Briefly: MTT antiproliferative assay, MDA-MB-231. To be noted: Homo sapiens, MDA-MB-231, 48 h, read-out: IC50 MDA-MB-231.
The next series has as its system A549. Briefly: MTT antiproliferative assay, A549. The following applies: Homo sapiens, A549, 48 h, read-out: IC50 A549.
Another series has as its system MKN-45. The experiment in a line: MTT antiproliferative assay, MKN-45. The following applies: Homo sapiens, MKN-45, 48 h, read-out: IC50 MKN-45.
A further series concerns HT-29. The experiment in a line: MTT antiproliferative assay, HT-29. The following applies: Homo sapiens, HT-29, 48 h, read-out: IC50 HT-29.
A further series concerns the target T1, c-Met (Homo sapiens, UniProt P08581).
T1 construct: purchased Invitrogen (Waltham, MA)
Briefly: In vitro c-Met enzymatic assay (HTRF). It is filed as biochemical. The following applies: HTRF assay; mean ± SD, triplicate; read-out: IC50 against c-Met. Here is the method: Inhibition of target compounds on c-Met kinase activity was measured by using the homogeneous time-resolved fluorescence (HTRF) assay.
The tyrosine kinases inhibitory activities of target compounds were evaluated in 384-well microtiter plates using purified kinases purchased from Invitrogen (Waltham, MA) by homogeneous time-resolved fluorescence (HTRF) assay. The HTRF KinEASE TK kit was performed according to the instructions. After the kinases and test compounds were incubated at 25–30 °C for 5 min, the kinase reactions were initiated by addition of 39 μL of kinase reaction buffer solution and incubated at 25–30 °C for 30 min. The reactions were quenched by addition 10 µL mixed detection solution. […] The inhibition rate (%) was calculated using the following equation: inhibition rate = [(activity of enzyme with tested compound – min)/(max – min)] × 100 (max: the enzyme activity in the presence of enzyme, substrates and cofactors; min: the enzyme activity in the presence of substrates, cofactors and in the absence of enzyme). IC50 value was calculated from the inhibition curve using GraphPad Prism 5.0 software (La Jolla, CA).

In the next series the test system is MKN-45 cells. The experiment in a line: Apoptosis by Annexin V/PI double staining, flow cytometry. To be noted: MKN-45, 1.2 μM, 24 h; control 6.02%.
Series [1] concerns c-Met and its downstream protein Akt in MDA-MB-231 cells. Details: method as in earlier work. To be noted: cited from earlier work.

T1 sequence (P08581 25-1390): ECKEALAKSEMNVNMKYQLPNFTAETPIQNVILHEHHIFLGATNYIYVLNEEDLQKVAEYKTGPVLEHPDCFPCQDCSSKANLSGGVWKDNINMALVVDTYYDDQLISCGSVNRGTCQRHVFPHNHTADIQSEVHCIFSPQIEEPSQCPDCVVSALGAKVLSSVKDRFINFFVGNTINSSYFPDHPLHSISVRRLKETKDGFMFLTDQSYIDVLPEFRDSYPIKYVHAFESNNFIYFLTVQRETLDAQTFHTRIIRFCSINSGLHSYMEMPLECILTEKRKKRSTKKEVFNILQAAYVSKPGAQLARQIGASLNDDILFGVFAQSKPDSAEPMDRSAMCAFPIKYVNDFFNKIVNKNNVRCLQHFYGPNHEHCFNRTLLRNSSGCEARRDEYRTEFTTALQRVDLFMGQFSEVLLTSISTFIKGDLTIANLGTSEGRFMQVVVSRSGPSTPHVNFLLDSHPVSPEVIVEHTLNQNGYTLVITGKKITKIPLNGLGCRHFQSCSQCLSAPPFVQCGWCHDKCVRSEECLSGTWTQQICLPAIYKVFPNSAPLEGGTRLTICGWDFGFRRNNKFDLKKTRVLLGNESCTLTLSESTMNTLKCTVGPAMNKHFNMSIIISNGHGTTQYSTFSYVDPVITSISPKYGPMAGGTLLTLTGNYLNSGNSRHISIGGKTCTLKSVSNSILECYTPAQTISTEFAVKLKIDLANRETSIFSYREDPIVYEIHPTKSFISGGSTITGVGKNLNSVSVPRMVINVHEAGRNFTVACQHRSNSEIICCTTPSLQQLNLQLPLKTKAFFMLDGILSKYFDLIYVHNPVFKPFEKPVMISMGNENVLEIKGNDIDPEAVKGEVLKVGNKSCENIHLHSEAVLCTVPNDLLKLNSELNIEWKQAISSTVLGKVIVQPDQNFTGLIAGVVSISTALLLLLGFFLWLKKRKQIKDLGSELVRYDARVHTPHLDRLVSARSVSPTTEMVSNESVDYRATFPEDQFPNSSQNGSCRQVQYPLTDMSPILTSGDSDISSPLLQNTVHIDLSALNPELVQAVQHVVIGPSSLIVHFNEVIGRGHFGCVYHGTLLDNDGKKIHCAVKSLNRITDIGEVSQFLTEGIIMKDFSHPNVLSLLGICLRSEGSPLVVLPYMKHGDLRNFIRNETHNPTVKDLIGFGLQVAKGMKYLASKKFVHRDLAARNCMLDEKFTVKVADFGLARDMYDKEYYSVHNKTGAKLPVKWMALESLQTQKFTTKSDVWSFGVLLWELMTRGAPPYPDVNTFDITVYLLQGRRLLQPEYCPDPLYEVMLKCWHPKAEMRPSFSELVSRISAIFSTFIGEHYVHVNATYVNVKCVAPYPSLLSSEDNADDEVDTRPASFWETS
Experimental for A549: (§1) MTT assay was used to determine the cytotoxic activity of target compounds against different cell lines. […] Then, the cells were treated with five doses of test compounds (pre-dissolved in DMSO), and 0.1% DMSO was used as a negative control. […] The results expressed as IC50 were the average of three determinations calculated by using the Bacus Laboratories Incorporated Slide Scanner (Bliss) software.
Experimental for FHC: as §1
Experimental for HT-29: as §1
Experimental for HUVEC: as §1
Experimental for MKN-45 cells: Apoptosis was detected by an Annexin V/propidium iodide (PI) double staining kit (Beyotime Biotechnology, Shanghai, China). […] Cells were harvested by trypsinisation and washed with ice-cold PBS solution. Cells were labelled with annexin V and PI and incubated at room temperature for 30 min in the dark. The labelled cells were analysed by a FACScan flow cytometer (Becton Dickinson, Franklin Lakes, NJ).

`O=C(Nc1ccc(Oc2ccnc3ccsc23)c(F)c1)c1nc(-c2ccccc2)cs1` [Compound 51q, N-(3-Fluoro-4-(thieno[3,2-b]pyridin-7-yloxy)phenyl)-4-phenylthiazole-2-carboxamide]: the melting point was in the range of 251 to 253 °C. For the same compound, the IC50 in the series with FHC worked out at 80.6 ± 4.52 µM. Moreover, the IC50 in the series with HUVEC was found to be 69.5 ± 2.68 µM. The IC50 with MDA-MB-231 was 32.5 ± 2.68 µM. For the same compound, the IC50 with A549 amounted to 12.9 ± 1.82 µM. For the same compound, the IC50 in the series on MKN-45 stood at 5.95 ± 0.63 µM. In the series with HT-29, the IC50 is 19.4 ± 2.48 µM. The IC50 on c-Met is 0.0385 ± 0.00423 µM.

With `O=C(Nc1ccc(Oc2ccnc3ccsc23)c(F)c1)c1nc(-c2ccc(F)cc2)cs1` [Compound 51r, N-(3-Fluoro-4-(thieno[3,2-b]pyridin-7-yloxy)phenyl)-4-(4-fluorophenyl)thiazole-2-carboxamide], the melting point fell in the range of 223 to 225 °C. In addition, the IC50 with FHC came to 51.2 ± 4.61 µM. Moreover, the IC50 in the series with HUVEC worked out at 40.6 ± 2.25 µM. The IC50 in the series with MDA-MB-231 stood at 28.9 ± 3.13 µM. Moreover, the concentration for half-maximal inhibition (IC50) with A549 is 10.5 ± 1.76 µM. Also, the IC50 in the series with MKN-45 turned out to be 5.02 ± 0.77 µM. Also, the IC50 in the series with HT-29 was determined as 18.3 ± 3.62 µM. Moreover, the IC50 at c-Met was found to be 0.0353 ± 0.00519 µM.

`O=C(Nc1ccc(Oc2ncnc3ccsc23)c(F)c1)c1nc(-c2ccccc2)cs1` [Compound 51s, N-(3-Fluoro-4-(thieno[3,2-d]pyrimidin-4-yloxy)phenyl)-4-phenylthiazole-2-carboxamide]: the melting point is 95 to 97 °C. Further, the IC50 in the series with FHC was found to be 65.5 ± 5.56 µM. The IC50 in the series on HUVEC is 43.4 ± 3.65 µM. The IC50 in the series with MDA-MB-231 is 32.8 ± 2.7 µM. In addition, the IC50 with A549 stood at 18.4 ± 2.33 µM. Also, the IC50 in the series with MKN-45 was 6.05 ± 0.94 µM. Moreover, the IC50 in the series on HT-29 was 25.6 ± 1.76 µM. The IC50 at c-Met is 0.0433 ± 0.00625 µM.

In the case of `O=C(Nc1ccc(Oc2ncnc3ccsc23)c(F)c1)c1nc(-c2ccc(F)cc2)cs1` [Compound 51t, N-(3-Fluoro-4-(thieno[3,2-d]pyrimidin-4-yloxy)phenyl)-4-(4-fluorophenyl)thiazole-2-carboxamide], the melting point was in the range of 146 to 148 °C. In addition, the IC50 in the series on FHC was 67.4 ± 4.38 µM. In addition, the IC50 with HUVEC is 41.4 ± 2.39 µM. For the same compound, the IC50 in the series with MDA-MB-231 was determined as 36.6 ± 2.83 µM. In addition, the IC50 in the series on A549 amounted to 14.5 ± 2.87 µM. In addition, the IC50 with MKN-45 was determined as 5.45 ± 0.65 µM. Moreover, the IC50 in the series with HT-29 was found to be 23.1 ± 3.34 µM. Besides, the IC50 at c-Met amounted to 0.0404 ± 0.00366 µM.

The compound `O=C(Nc1ccc(Oc2ncnc3sccc23)c(F)c1)c1nc(-c2ccccc2)cs1` [Compound 51u, N-(3-Fluoro-4-(thieno[2,3-d]pyrimidin-4-yloxy)phenyl)-4-phenylthiazole-2-carboxamide] registered a melting point of 78 to 80 °C. Besides, in the series on FHC, the IC50 was 48.2 ± 5.04 µM. In addition, in the series with HUVEC, the half-maximal inhibitory concentration (IC50) came to 38.8 ± 3.53 µM. Besides, the IC50 in the series with MDA-MB-231 is 35.9 ± 2.52 µM. The IC50 in the series on A549 was found to be 16.8 ± 2.28 µM. Further, in the series on MKN-45, the IC50 amounted to 5.53 ± 1.26 µM. In addition, the IC50 in the series with HT-29 came to 26.4 ± 3.22 µM. For the same compound, the IC50 at c-Met came out at 0.0404 ± 0.00553 µM.

In turn, `O=C(Nc1ccc(Oc2ncnc3sccc23)c(F)c1)c1nc(-c2ccc(F)cc2)cs1` [Compound 51v, N-(3-Fluoro-4-(thieno[2,3-d]pyrimidin-4-yloxy)phenyl)-4-(4-fluorophenyl)thiazole-2-carboxamide] yielded a melting point of 154 to 156 °C. The IC50 in the series with FHC stood at 63.3 ± 3.35 µM. For the same compound, the IC50 in the series with HUVEC is 54.4 ± 4.16 µM. In addition, in the series with MDA-MB-231, the IC50 worked out at 29.1 ± 2.52 µM. For the same compound, the IC50 with A549 worked out at 12.6 ± 1.83 µM. Moreover, the IC50 with MKN-45 was determined as 4.23 ± 0.94 µM. Moreover, in the series on HT-29, the 50% inhibitory concentration (IC50) was 19.2 ± 2.85 µM. The IC50 at c-Met was 0.0376 ± 0.00288 µM.

`O=C(Nc1ccc(Oc2ccnc(Cl)c2)c(F)c1)c1nc(-c2ccccc2)cs1` [Compound 51w, N-(4-((2-Chloropyridin-4-yl)oxy)-3-fluorophenyl)-4-phenylthiazole-2-carboxamide]: the melting point was 205 to 207 °C. For the same compound, in the series with FHC, the IC50 was found to be 48.2 ± 5.04 µM. The IC50 in the series on HUVEC worked out at 38.6 ± 3.53 µM. Besides, the IC50 with MDA-MB-231 amounted to 26.3 ± 3.09 µM. Moreover, the IC50 in the series on A549 came to 7.26 ± 1.37 µM. For the same compound, the IC50 in the series with MKN-45 came to 2.53 ± 0.62 µM. Further, the IC50 with HT-29 turned out to be 12.5 ± 2.39 µM. The IC50 at c-Met came out at 0.0243 ± 0.00167 µM.

Compound `Cc1ccc(-c2csc(C(=O)Nc3ccc(Oc4ccnc(Cl)c4)c(F)c3)n2)cc1` [Compound 51x, N-(4-((2-Chloropyridin-4-yl)oxy)-3-fluorophenyl)-4-(4-methylphenyl)thiazole-2-carboxamide] gave a melting point of 157 to 159 °C. In addition, the IC50 in the series with FHC is 43.4 ± 3.68 µM. Moreover, the IC50 with HUVEC came out at 30.8 ± 2.43 µM. Also, in the series on MDA-MB-231, the IC50 is 28.6 ± 1.85 µM. Also, the IC50 in the series with A549 turned out to be 8.65 ± 1.72 µM. The IC50 in the series with MKN-45 was 3.46 ± 0.75 µM. In addition, in the series on HT-29, the IC50 was found to be 14.3 ± 2.13 µM. Further, the IC50 at c-Met worked out at 0.0315 ± 0.00425 µM.

`COc1ccc(-c2csc(C(=O)Nc3ccc(Oc4ccnc(Cl)c4)c(F)c3)n2)cc1OC` [Compound 51z, N-(4-((2-Chloropyridin-4-yl)oxy)-3-fluorophenyl)-4-(3,4-dimethoxyphenyl)thiazole-2-carboxamide]: the melting point was 120 to 122 °C. The IC50 with FHC is greater than 100 µM. Also, the IC50 in the series with HUVEC worked out at 26.5 ± 3.84 µM. The IC50 in the series with MDA-MB-231 turned out to be 20.5 ± 3.14 µM. The IC50 with A549 was 11.3 ± 1.96 µM. In the series with MKN-45, the IC50 came out at 4.05 ± 1.12 µM. In addition, the IC50 with HT-29 is 15.6 ± 2.51 µM. The IC50 on c-Met was found to be 0.0455 ± 0.00628 µM.

Consider `COc1cc2c(Oc3ccc(NC(=O)C4(C(=O)Nc5ccc(F)cc5)CC4)cc3F)ccnc2cc1OCCCN1CCOCC1` [Foretinib, reference compound], for which the IC50 in the series with FHC was 4.06 ± 0.75 µM; in the series with HUVEC, 0.68 ± 0.09 µM; with MDA-MB-231, 0.89 ± 0.14 µM; with A549 it was 0.45 ± 0.05 µM; with MKN-45 it was 0.058 ± 0.006 µM; in the series on HT-29 it was 0.37 ± 0.05 µM. The “percentage of apoptotic cells” value in the series with MKN-45 cells is 41.21%.

Take `Cn1cc(-c2ccc3nnc(Sc4ccc5ncccc5c4)n3n2)cn1` [SGX523]: the “inhibition of phosphorylation of c-Met and Akt” value in series [1] is “effectively inhibited the phosphorylation of c-Met and its downstream protein Akt”.
